From the supplement of paper PMC10307832

Tests used:
Experiment in all cases: relative viability (nuclei count vs DMSO), 5 days (fraction); higher = more cells survive
BI-D1870 + AZD7762 = compound: CC(C)CCN1c2nc(Nc3cc(F)c(O)c(F)c3)ncc2N(C)C(=O)C1C [BI-D1870] + NC(=O)Nc1cc(-c2cccc(F)c2)sc1C(=O)N[C@H]1CCCNC1 [AZD7762] (partner 0.2 µM)
In short: (§1)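 Relative viability equals treated-well nuclei counts divided by vehicle-well nuclei counts. Counts came from 4× images of lung cancer cell lines grown in 1536-well plates for 5 days after pin-tool dosing on the day after seeding. Dosing used one drug alone or a fixed anchor-drug dose plus five library-drug doses (not always all listed) in √10 steps, and values are medians of duplicate plates.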

BI-D1870 + Palbociclib = compound: CC(C)CCN1c2nc(Nc3cc(F)c(O)c(F)c3)ncc2N(C)C(=O)C1C [BI-D1870] + CC(=O)c1c(C)c2cnc(Nc3ccc(N4CCNCC4)cn3)nc2n(C2CCCC2)c1=O [Palbociclib] (partner 0.5 µM)
In short: as §1

Zebularine + Decitabine = compound: O=c1ncccn1[C@@H]1O[C@H](CO)[C@@H](O)[C@H]1O [Zebularine] + Nc1ncn([C@H]2C[C@H](O)[C@@H](CO)O2)c(=O)n1 [Decitabine] (partner 2 µM)
In short: as §1

Zebularine + Crizotinib = compound: O=c1ncccn1[C@@H]1O[C@H](CO)[C@@H](O)[C@H]1O [Zebularine] + C[C@@H](Oc1cc(-c2cnn(C3CCNCC3)c2)cnc1N)c1c(Cl)ccc(F)c1Cl [Crizotinib] (partner 1 µM)
In short: as §1

Cell Line	relative viability (BI-D1870 + AZD7762; first compound 0.04 µM)	relative viability (BI-D1870 + AZD7762; first compound 0.1265 µM)	relative viability (BI-D1870 + AZD7762; first compound 0.4 µM)	relative viability (BI-D1870 + AZD7762; first compound 1.265 µM)	relative viability (BI-D1870 + AZD7762; first compound 4 µM)	relative viability (BI-D1870 + Palbociclib; first compound 0.04 µM)	relative viability (BI-D1870 + Palbociclib; first compound 0.1265 µM)	relative viability (BI-D1870 + Palbociclib; first compound 0.4 µM)	relative viability (BI-D1870 + Palbociclib; first compound 1.265 µM)	relative viability (BI-D1870 + Palbociclib; first compound 4 µM)	relative viability (Zebularine + Decitabine; first compound 1 µM)	relative viability (Zebularine + Decitabine; first compound 3.162 µM)	relative viability (Zebularine + Decitabine; first compound 10 µM)	relative viability (Zebularine + Decitabine; first compound 31.62 µM)	relative viability (Zebularine + Decitabine; first compound 100 µM)	relative viability (Zebularine + Crizotinib; first compound 1 µM)	relative viability (Zebularine + Crizotinib; first compound 3.162 µM)	relative viability (Zebularine + Crizotinib; first compound 31.62 µM)	relative viability (Zebularine + Crizotinib; first compound 100 µM)	relative viability (Zebularine + Crizotinib; first compound 10 µM)
NCI-H1993	0.878	0.682	1.03	0.988	0.471	0.642	0.583	0.717	0.691	0.573	0.639	0.602	0.506	0.601	0.703	0.732	0.801	0.862	0.646	
NCI-H322M	0.591	0.558	0.611	0.684	0.656	0.492	0.475	0.461	0.483	0.501	0.712	0.636	0.614	0.696	0.675	0.969	0.897	0.821	0.523	0.804
NCI-H838	0.994	0.909	0.893	1.04	0.947	0.243	0.236	0.232	0.262	0.209	0.504	0.49	0.489	0.42	0.289	0.93	0.838	0.65	0.3	0.493
HARA	0.442	0.307	0.263	0.318	0.297	0.219	0.234	0.263	0.272	0.23	0.595	0.603	0.433	0.554	0.459	1.17	1.11	1.17	0.834	
NCI-H2087	1.41	1.4	1.37	1.45	1.41	0.239	0.2	0.265	0.196	0.208	0.322	0.294	0.207	0.279	0.223	1.07	0.803	0.654	0.197	0.551
NCI-H1437	1.09	1.06	1.12	1.1	1.06	0.304	0.336	0.309	0.272	0.212	0.617	0.639	0.464	0.686	0.528	1.09	0.987	0.902	0.31	
NCI-H1792	0.728	0.599	0.72	0.72	0.527	0.635	0.613	0.679	0.719	0.479	0.62	0.531	0.292	0.292	0.254	1.06	0.876	0.386	0.339	0.381
ChaGo-K-1	0.956	0.81	0.89	0.911	0.834	0.907	0.876	0.887	0.978	0.949	0.534	0.566	0.432	0.232	0.199	1.09	1	0.406	0.39	0.603
NCI-H650	1.14	0.83	0.897	1.17	0.778	0.384	0.304	0.338	0.353	0.233	0.28	0.285	0.31	0.298	0.297	0.598	0.652	0.43	0.334	0.587
LK-2	0.509	0.473	0.374	0.536	0.263	0.803	0.842	0.598	0.701	0.672	0.34	0.338	0.274	0.288	0.194	0.217	0.236	0.209	0.23	0.266
201T	0.663	0.534	0.602	0.618	0.696	0.358	0.339	0.362	0.365	0.356	0.872	0.883	0.76	0.894	0.844	1.08	1.03	1.11	1.01	0.861
HCC-44	1.02	0.988	1	1.04	1.04	0.966	0.901	0.919	1.01	0.946	0.981	0.929	0.946	1.03	0.585	0.808	0.798	0.656	0.166	0.698
H3255	0.956	0.965	0.851	1.07	0.892	0.335	0.311	0.325	0.335	0.321	0.687	0.615		0.65	0.665	0.945	0.853	0.91	0.858	0.576
NCI-H647	0.432	0.502	0.494	0.611	0.479	0.488	0.342	0.463	0.371	0.215	0.391	0.369	0.187	0.144	0.14	1.18	0.981	0.142	0.228	0.254
NCI-H23	0.337	0.224	0.23	0.192	0.243	0.568	0.47	0.546	0.525	0.323	0.344	0.342		0.303	0.335	0.482	0.559	0.456	0.5	
NCI-H1944	0.624	0.433	0.514	0.685	0.546	0.335	0.308	0.308	0.332	0.33	0.455	0.424	0.449	0.461	0.395	1.21	1.06	0.87	0.666	0.681
NCI-H460	0.702	0.621	0.566	0.993	0.829	0.226	0.154	0.135	0.184	0.121	0.549	0.504	0.236	0.467	0.112	1.06	0.987	0.375	0.1	0.273

Cell Line	relative viability (BI-D1870 + AZD7762; first compound 0.04 µM)	relative viability (BI-D1870 + AZD7762; first compound 0.1265 µM)	relative viability (BI-D1870 + AZD7762; first compound 0.4 µM)	relative viability (BI-D1870 + AZD7762; first compound 1.265 µM)	relative viability (BI-D1870 + AZD7762; first compound 4 µM)	relative viability (BI-D1870 + Palbociclib; first compound 0.04 µM)	relative viability (BI-D1870 + Palbociclib; first compound 0.1265 µM)	relative viability (BI-D1870 + Palbociclib; first compound 0.4 µM)	relative viability (BI-D1870 + Palbociclib; first compound 1.265 µM)	relative viability (BI-D1870 + Palbociclib; first compound 4 µM)	relative viability (Zebularine + Decitabine; first compound 1 µM)	relative viability (Zebularine + Decitabine; first compound 3.162 µM)	relative viability (Zebularine + Decitabine; first compound 10 µM)	relative viability (Zebularine + Decitabine; first compound 31.62 µM)	relative viability (Zebularine + Decitabine; first compound 100 µM)	relative viability (Zebularine + Crizotinib; first compound 1 µM)	relative viability (Zebularine + Crizotinib; first compound 3.162 µM)	relative viability (Zebularine + Crizotinib; first compound 31.62 µM)	relative viability (Zebularine + Crizotinib; first compound 100 µM)	relative viability (Zebularine + Crizotinib; first compound 10 µM)
EKVX	0.632	0.72	0.61	0.742	0.701	0.472	0.366	0.352	0.385	0.341	0.576	0.378		0.304	0.339	1.11	0.87	0.896	1.11	
NCI-H358	0.551	0.566	0.52	0.594	0.492	0.121	0.124	0.117	0.128	0.126	0.219	0.172	0.178	0.214	0.144	0.618	0.475	0.387	0.252	0.237
EPLC-272H	0.207	0.17	0.257	0.21	0.255	0.323	0.358	0.306	0.288	0.23	0.404		0.398	0.364	0.371	0.969		0.839	0.685	
NCI-H2126	1.02	1.02	0.95	1.05	0.991	0.369	0.4	0.38	0.33	0.357	0.582	0.629	0.585	0.608	0.396	1.11	0.987	0.804	0.503	0.958
LXF-289	1.08	1.04	1.07	1.06	0.943	0.577	0.583	0.598	0.641	0.558	0.362	0.331	0.382	0.345	0.24	0.835	0.828	0.622	0.238	0.714
NCI-H2405	0.875	0.707	0.717	0.806	0.624	0.58	0.525	0.523	0.565	0.49	0.731	0.699	0.671	0.765	0.58	0.845	0.825	0.846	0.56	0.621
NCI-H1755	0.417	0.412	0.407	0.486	0.404	0.432	0.413	0.438	0.481	0.435	0.713	0.715	0.703	0.786	0.615	1.03	0.872	0.864	0.466	0.612
HCC-78	0.677	0.593	0.528	0.815	0.598	0.456	0.489	0.405	0.462	0.454	0.732	0.643		0.663	0.449	0.336	0.335	0.359	0.252	0.298
LOU-NH91	0.846	0.755	0.73	0.804	0.624	0.497	0.57	0.499	0.529	0.509	0.842	0.802	0.744	0.849	0.593	0.713	0.732	0.738	0.647	0.693
NCI-H3122	0.947	0.902	0.952	1.06	0.944	0.187	0.176	0.211	0.267	0.216	0.507	0.475	0.411	0.411	0.532	0.268	0.248	0.298	0.235	0.243
HCC-827	0.233	0.295	0.173	0.223	0.185	0.444	0.431	0.421	0.446	0.432	0.42	0.353	0.259	0.259	0.346	1.07	0.907	0.647	0.339	0.785
NCI-H1975	0.791	0.611	0.721	0.732	0.653	0.785	0.521	0.552	0.623	0.456	0.428	0.346	0.345	0.35	0.267	1.02	1.07	0.317	0.265	0.513
NCI-H1651	0.511	0.491	0.395	0.465	0.403	0.473	0.503	0.494	0.555	0.536	0.714	0.56	0.58	0.522	0.347	0.919	0.893	0.745	0.514	0.604
NCI-H441	1.29	1.09	1.03	1.09	1.1	0.266	0.21	0.173	0.225	0.229	0.246	0.237	0.266	0.184	0.16	0.874	0.657	0.173	0.219	0.289
LCLC-103H	0.768	0.655	0.804	0.871	0.741	0.475	0.471	0.439	0.409	0.379	0.801	0.727	0.713	0.719	0.666	1.07	1.11	1.07	0.862	0.867
LCLC-97TM1	0.194	0.317	0.174	0.368	0.335	0.262	0.217	0.171	0.217	0.17	0.211	0.202	0.183	0.176	0.117	0.355	0.291	0.121	0.12	0.145
